Test results taken from patent publication US4250255A, “Assay method for isoenzyme activity” (Eastman Kodak Company, priority 1977, dated 1981).

Columns and labels:
[1] = biological target: T1, LD1 (beef heart) (Bos taurus, UniProt Q5E9B1); assay: LDH activity assay (pyruvate + NADH, absorbance decrease at 340 nm); assay type: biochemical; conditions: DSS 8.65 mM; CP 1 mM; FIG. 1B
T1 construct: Beef heart LDH (Sigma Chemical Co., Type III); purchased Sigma Chemical Co. Type III; host or cells: beef heart
T1 sequence (Q5E9B1 2-334): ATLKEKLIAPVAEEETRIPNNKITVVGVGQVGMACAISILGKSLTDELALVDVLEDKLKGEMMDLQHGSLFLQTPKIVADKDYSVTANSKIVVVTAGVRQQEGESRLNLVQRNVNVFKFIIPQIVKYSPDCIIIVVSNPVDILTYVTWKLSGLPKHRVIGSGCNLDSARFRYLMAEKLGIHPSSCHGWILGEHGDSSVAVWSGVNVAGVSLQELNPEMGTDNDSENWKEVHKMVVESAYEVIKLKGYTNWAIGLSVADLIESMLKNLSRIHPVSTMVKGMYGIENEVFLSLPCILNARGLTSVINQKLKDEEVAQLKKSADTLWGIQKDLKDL
Experimental: (§1) The assay for LDH activity in both the absence and presence of surfactant was conducted as follows. […] The resulting solution contains approximately 5 units/ml. […] To the equilibrated solution […]. of the enzyme solution was added, and the cuvette was rapidly shaken while covering the top of the cuvette with a small piece of Parafilm® and placed back into the spectrophotometer.
(§2) Amphiphile solutions were prepared by weighing out a given amount of amphiphile, e.g., 100 mg, and preparing a stock solution in 30 mM sodium phosphate buffer in 100 ml. volumetric flask. Solutions of lower amphiphile concentration were prepared by making the appropriate dilutions from the stock solution.
(§3) The LDH enzyme assay (pyruvate+NADH→) is measured by the decrease in NADH absorbance at 340 nm with respect to time.

[2] = biological target: T2, LD5 (rabbit muscle) (Oryctolagus cuniculus, UniProt P13491); assay: as above; assay type: biochemical
T2 construct: rabbit muscle LDH (Sigma Chemical Co., Type V); purchased Sigma Chemical Co. Type V; host or cells: rabbit muscle
Experimental: as §1, §2, §3

[3] = biological target: T3, mMDH (Sus scrofa, UniProt P00346); assay: Assay for MDH (oxalacetic acid + NADH, 340 nm); assay type: biochemical, porcine; conditions: FIG. 17
T3 construct: Porcine cMDH and mMDH were used as ammonium sulfate suspensions
T3 sequence (P00346 25-338): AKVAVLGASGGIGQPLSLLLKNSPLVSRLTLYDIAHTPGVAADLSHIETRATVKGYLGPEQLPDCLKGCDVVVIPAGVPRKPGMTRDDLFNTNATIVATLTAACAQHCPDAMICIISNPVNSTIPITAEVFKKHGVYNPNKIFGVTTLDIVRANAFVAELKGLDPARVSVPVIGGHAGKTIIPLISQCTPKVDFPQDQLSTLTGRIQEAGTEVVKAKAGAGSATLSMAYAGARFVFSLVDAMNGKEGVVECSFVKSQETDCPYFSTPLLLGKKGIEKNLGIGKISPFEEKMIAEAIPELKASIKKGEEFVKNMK
Experimental: 1. Porcine cMDH and mMDH were used as ammonium sulfate suspensions. Typically, 5 μl of the enzyme stock solutions were diluted to 10 ml with 30 mM phosphate buffer, pH 7.4, prior to use. The resulting enzyme solutions were stored in ice water; 100 μl aliquots were withdrawn for assay except where another amount is specified.
The assay is based on conversion of oxalacetic acid to malate in the presence of NADH and MDH. The assay was made [formula] in 30 mM phosphate buffer, at ambient temperature, with and without appropriate surfactant concentrations, and contained 0.17 mM OAA and 0.13 mM NADH. The reaction was followed by monitoring the decrease in absorbance at 340 nm using either a Beckman 25 or Cary 118 spectrophotometer. The OAA solutions were stored over ice to prevent hydrolysis to pyruvic acid.

[4] = system: isoenzymes of creatinine phosphokinase (CPK); assay: Conventional coupled CPK assay (hexokinase, glucose-6-phosphate dehydrogenase); assay type: biochemical; conditions: conventional assay with coupled reactions, hexokinase and glucose-6-phosphate dehydrogenase
Source text: Of course, the particular amphiphile used and the concentration at which it is used will depend upon the particular isoenzyme being assayed. Not every amphiphile will have a discriminatory effect on the activity of isoenzymes in each isoenzyme system.

[5] = biological target: LD1 (Sus scrofa, UniProt P00336); assay: LDH activity assay with amphiphile, LDH isoenzymes; assay type: biochemical, porcine; design: porcine LDH, LD1, LD2, LD3, LD4 and LD5 in the form of ammonium sulfate suspensions
Chain of LD1 (P00336 2-334): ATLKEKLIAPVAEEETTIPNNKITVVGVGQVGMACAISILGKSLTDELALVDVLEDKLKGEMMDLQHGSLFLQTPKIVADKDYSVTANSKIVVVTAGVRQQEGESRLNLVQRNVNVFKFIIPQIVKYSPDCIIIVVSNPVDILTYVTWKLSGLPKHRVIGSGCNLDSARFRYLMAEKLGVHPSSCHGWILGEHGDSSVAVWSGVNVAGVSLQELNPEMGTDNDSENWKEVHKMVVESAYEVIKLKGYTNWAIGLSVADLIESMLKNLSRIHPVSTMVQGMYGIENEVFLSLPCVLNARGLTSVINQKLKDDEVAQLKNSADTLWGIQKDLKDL
Experimental: 3. Beef heart LDH (Sigma Chemical Co., Type III), rabbit muscle LDH (Sigma Chemical Co., Type V) and porcine LDH, LD1, LD2, LD3, LD4 and LD5 in the form of ammonium sulfate suspensions were used for these examples.
as §1, §2

SMILES: CCCCCCCCCCOS(=O)(=O)[O-].[Na+] [DSS, sodium decylsulfate]
- LD1 (beef heart) activity in the presence of amphiphile [1]: almost no loss in LD1 activity
- LD5 (rabbit muscle) activity in the presence of amphiphile ([2]; DSS 8.65 mM, CP 1 mM, FIG. 1A): rapidly inactivates
- time to complete inactivation of LD5 ([2]; anionic detergent (DSS), dead time of the instrument): ≤ 5 s
- inactivation of mMDH relative to cMDH [3]: clear preferential inactivation of mMDH relative to cMDH
- discriminatory effect on the activities of the isoenzymes of CPK [4]: do not appear to have any discriminatory effect
- LD1 activity in amphiphile solution compared with buffer ([5]; 9 mM DSS in 30 mM phosphate buffer, pH 7.4, FIG. 10): less than control LD1 activity in buffer
- isoenzyme activity beyond 9 mM amphiphile ([5]; DSS beyond 9 mM, FIG. 8): only LD1 continues to show activity
- remaining activity at 7000 µM ([5]; pH 7.4, read-out: LD1 activity remaining relative to buffer): ~65%
